Assay results as given in US12624026B2, “Inhibitors of SARM1” (Disarm Therapeutics, Inc., priority 2018, dated 2026).

target: T1, SARM1 SAM-TIR (Homo sapiens, UniProt Q6SZW1); assay: biochemical; details: not given
T1 construct: a fragment of the SARM1 molecule encompassing the SAM and TIR domains; made in house; host or cells: NRK1-HEK293T cells, transiently transfected; the cleared, unpurified lysate was used as the enzyme
T1 sequence (Q6SZW1 409-724 limits assumed): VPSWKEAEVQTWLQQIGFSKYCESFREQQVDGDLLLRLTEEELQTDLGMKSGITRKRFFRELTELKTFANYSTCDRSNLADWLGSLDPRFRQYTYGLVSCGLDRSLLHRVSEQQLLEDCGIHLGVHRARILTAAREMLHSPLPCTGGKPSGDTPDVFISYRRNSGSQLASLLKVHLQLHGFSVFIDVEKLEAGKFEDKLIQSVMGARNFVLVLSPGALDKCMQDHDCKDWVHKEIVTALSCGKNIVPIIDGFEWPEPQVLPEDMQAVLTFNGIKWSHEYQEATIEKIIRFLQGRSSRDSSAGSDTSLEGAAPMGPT
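Also: inhibition of SARM1 SAM-TIR NADase activity, i.e. NAD+ cleavage, using lysate of NRK1-HEK293T cells overexpressing the SAM-TIR fragment.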

SMILES | IC50 [nM]
N#Cc1c(Nc2cccc(C3=CCNCC3)c2C(F)(F)F)s[nH]c1=O [Example 131] | < 1000

same assay, conditions: SAM-TIR lysate 5 μg/mL, 2 h pre-incubation, 5 μM NAD+, RapidFire MS of NAD+ and ADPR; read-out: SARM1 IC50

SMILES | IC50 [nM]
N=C(c1c(Nc2cccc(Cl)c2Cl)s[nH]c1=O)N1CCOCC1 [Example 136] | 1000 to 5000
N#Cc1c(O)nsc1Nc1ccc(Cl)c(Cl)c1 [Example 8] | 1000 to 5000
N#Cc1c(Nc2ccc(N3CC[C@@H](N)C3)nc2)s[nH]c1=O [Example 144] | 1000 to 5000
N#Cc1c(Nc2c(F)cccc2Cl)s[nH]c1=O [Example 102] | < 1000
COCC(C)n1sc(Nc2ccccc2C(F)(F)F)c(C#N)c1=O (stereo not drawn) [Example 74] | < 1000
C[C@@H](c1ccccc1)n1sc(Nc2ccccc2C(F)(F)F)c(C#N)c1=O [Example 94] | < 1000
N#Cc1c(O)nsc1NCc1ccccc1 [Example 24] | > 5000
C[C@H](c1ccccc1)n1sc(Nc2ccccc2C(F)(F)F)c(C#N)c1=O [Example 89] | < 1000
COc1cccc(OC)c1Nc1s[nH]c(=O)c1C#N [Example 113] | 1000 to 5000
COCCn1sc(Nc2cccc(Cl)c2Cl)c(C(=N)N2CCCCC2)c1=O [Example 127] | < 1000
N#Cc1c(Nc2cccc3ncccc23)sn(CCC(N)=O)c1=O [Example 122] | < 1000
CN(C)C(=N)c1c(Nc2c(Cl)ccc3ncccc23)s[nH]c1=O [Example 145] | 1000 to 5000
N#Cc1c(Nc2cccc(C(N)=O)c2C(F)(F)F)s[nH]c1=O [Example 108] | 1000 to 5000
COCCn1sc(N(C)c2ccccc2C(F)(F)F)c(-c2ncon2)c1=O [Example 160] | > 5000
CN(C)C(=O)c1c(Nc2ccccc2C(F)(F)F)s[nH]c1=O [Example 115] | 1000 to 5000
COCCn1sc(Nc2c(Cl)ccc3ncccc23)c(C#N)c1=O [Example 86] | < 1000
COCCN(C)C(=N)c1c(Nc2cccc(Cl)c2Cl)sn(CCOC)c1=O [Example 124] | < 1000
COc1ccc(Cn2sc(N(CCF)c3ccccc3C(F)(F)F)c(C#N)c2=O)cc1 [Example 121] | > 5000
CN(C)CCn1sc(Nc2ccccc2C(F)(F)F)c(C#N)c1=O [Example 33] | < 1000
CC(C)c1ccc(Nc2snc(O)c2C#N)cc1 [Example 4] | > 5000
N#Cc1c(O)nsc1Nc1ccc(C(F)(F)F)cc1 [Example 13] | 1000 to 5000
COc1cccc(Cl)c1Nc1sn(C)c(=O)c1C#N [Example 35] | < 1000
Cn1sc(Nc2c(F)cccc2Cl)c(C#N)c1=O [Example 45] | < 1000

SMILES | IC50 [nM]
Cn1sc(Nc2c(F)cccc2Cl)c(C(=O)N2CCOCC2)c1=O [Example 140] | 1000 to 5000
N#Cc1c(Nc2ccccc2C(F)(F)F)sn(CC2(O)CC2)c1=O [Example 61] | < 1000
COc1ccc2ncccc2c1Nc1sn(C)c(=O)c1C#N [Example 84] | < 1000
Cn1sc(Nc2c(Cl)ccc3c2CCO3)c(C#N)c1=O [Example 40] | < 1000
COCCn1sc(Nc2c(Cl)cccc2C(F)(F)F)c(C#N)c1=O [Example 90] | < 1000
N#Cc1c(Nc2ccccc2C(F)(F)F)sn(Cc2n[nH]c3ccccc23)c1=O [Example 92] | < 1000
CN(c1ccccc1C(F)(F)F)c1snc(O)c1C#N [Example 30] | > 5000
COCCn1sc(Nc2ccc(Cl)cc2C(F)(F)F)c(C#N)c1=O [Example 70] | < 1000
N#Cc1c(Nc2ccccc2C(F)(F)F)sn(CCC(=O)N2CCC(N3CCC3)CC2)c1=O [Example 78] | < 1000
N#Cc1c(Nc2ccccc2C(F)(F)F)sn(CCO)c1=O [Example 39] | < 1000
O=C(c1c(Nc2c(Cl)cccc2Cl)s[nH]c1=O)N1CCOCC1 [Example 153] | 1000 to 5000
CN(C(=O)c1c(Nc2ccccc2C(F)(F)F)s[nH]c1=O)C1CCCCC1 [Example 112] | 1000 to 5000
COc1cccc(C(F)(F)F)c1Nc1s[nH]c(=O)c1C(=O)N1CCOCC1 [Example 159] | > 5000
Cn1sc(Nc2c(Cl)cccc2Cl)c(C(=N)N2CCOCC2)c1=O [Example 132] | < 1000
C[C@@H](CO)n1sc(Nc2ccccc2C(F)(F)F)c(C#N)c1=O [Example 44] | < 1000
O=c1cc(Nc2ccccc2C(F)(F)F)s[nH]1 [Example 166] | 1000 to 5000
N#Cc1c(Nc2c(Cl)cccc2Cl)sn(CCO)c1=O [Example 68] | < 1000
N#Cc1c(Nc2ccccc2C2CC2)s[nH]c1=O [Example 111] | 1000 to 5000
C[C@H](CO)n1sc(Nc2ccccc2C(F)(F)F)c(C#N)c1=O [Example 47] | < 1000
N#Cc1c(Nc2ccccc2C(F)(F)F)sn(CC(N)=O)c1=O [Example 38] | < 1000
COc1ccc2nc(C)ccc2c1Nc1s[nH]c(=O)c1C#N [Example 106] | 1000 to 5000
N#Cc1c(N2CCc3ccccc32)s[nH]c1=O [Example 162] | > 5000
CC(C)(O)Cn1sc(Nc2ccccc2C(F)(F)F)c(C#N)c1=O [Example 64] | < 1000

SMILES | IC50 [nM]
C[C@@H](c1ccccc1)n1sc(Nc2ccccc2C(F)(F)F)c(C(=O)N2CCOCC2)c1=O [Example 147] | 1000 to 5000
N#Cc1c(Nc2ccccc2C(F)(F)F)sn(CCC(N)=O)c1=O [Example 36] | < 1000
N#Cc1c(Nc2ccc(N3CC[C@@H](O)C3)nc2)s[nH]c1=O [Example 150] | 1000 to 5000
CC(C)(O)Cn1sc(Nc2c(F)cccc2Cl)c(C#N)c1=O [Example 67] | < 1000
N#Cc1c(O)nsc1Nc1ccccc1F [Example 11] | 1000 to 5000
COCCN(C)C(=N)c1c(Nc2ccccc2C(F)(F)F)s[nH]c1=O [Example 141] | 1000 to 5000
N#Cc1c(O)nsc1Nc1ccc2ccccc2c1 [Example 28] | 1000 to 5000
N#Cc1c(Nc2ccc3nc(C(F)(F)F)[nH]c(=O)c3c2)s[nH]c1=O [Example 173] | > 5000
COCCn1sc(Nc2cccc(Cl)c2Cl)c(C(=N)N2CCOCC2)c1=O [Example 130] | < 1000
N#Cc1c(Nc2cccc(C3CCCNC3)c2C(F)(F)F)s[nH]c1=O (stereo not drawn) [Example 157] | > 5000
CN(C)CCn1sc(Nc2c(Cl)cccc2Cl)c(C#N)c1=O [Example 99] | < 1000
C[C@@H](c1ccccc1)n1sc(Nc2c(Cl)cccc2Cl)c(C(=N)N(C)C)c1=O [Example 134] | 1000 to 5000
Cn1sc(Nc2cccc3c2CCCO3)c(C#N)c1=O [Example 75] | < 1000
Cn1sc(Nc2ccccc2Cl)c(C(=N)N2CCOCC2)c1=O [Example 126] | < 1000
N#Cc1c(Nc2c(Cl)cccc2Cl)sn(CCC(N)=O)c1=O [Example 79] | < 1000
COCCn1sc(Nc2c(OC)cccc2C(F)(F)F)c(C(=N)N(C)C)c1=O [Example 135] | 1000 to 5000
N#Cc1c(Nc2ccccc2C(F)(F)F)sn(CC2CCCO2)c1=O (stereo not drawn) [Example 76] | < 1000
N#Cc1c(Nc2cccc(C(=O)O)c2C(F)(F)F)s[nH]c1=O [Example 120] | > 5000
CN(C)C(=N)c1c(Nc2ccccc2C2CC2)s[nH]c1=O [Example 146] | 1000 to 5000
N#Cc1c(Nc2cccc(-c3ccc4cc[nH]c4c3)c2C(F)(F)F)s[nH]c1=O [Example 161] | > 5000
CN(C(=O)c1c(Nc2ccccc2C(F)(F)F)s[nH]c1=O)c1ccccc1 [Example 172] | 1000 to 5000
COCCN(C)C(=O)c1c(Nc2ccccc2C(F)(F)F)s[nH]c1=O [Example 116] | > 5000
C[C@@H](c1ccccc1)n1sc(Nc2c(Cl)cccc2Cl)c(C(=N)N2CCOCC2)c1=O [Example 165] | > 5000

SMILES | IC50 [nM]
COCCn1sc(Nc2cccc3ncccc23)c(C#N)c1=O [Example 95] | < 1000
Cn1sc(Nc2c(Cl)cccc2Cl)c(C#N)c1=O [Example 46] | < 1000
NC(=O)c1c(O)nsc1Nc1cccc(Cl)c1Cl [Example 18] | 1000 to 5000
COCCn1sc(Nc2ccccc2C(F)(F)F)c(C#N)c1=O [Example 51] | < 1000
N#Cc1c(O)nsc1Nc1ccc2cccnc2c1 [Example 29] | 1000 to 5000
N#Cc1c(Nc2ccccc2C(F)(F)F)sn(C[C@@H]2CCOC2)c1=O [Example 60] | < 1000
Cn1sc(Nc2cccc(Cl)c2Cl)c(C#N)c1=O [Example 37] | < 1000
COCCCn1sc(Nc2ccccc2C(F)(F)F)c(C#N)c1=O [Example 71] | < 1000
Cn1sc(Nc2ccc(Cl)c3c2cnn3C)c(C#N)c1=O [Example 69] | < 1000
N#Cc1c(O)nsc1Nc1ccc(Cl)cc1 [Example 5] | 1000 to 5000
CCn1sc(Nc2ccccc2C(F)(F)F)c(C#N)c1=O [Example 65] | < 1000
COC[C@H](C)n1sc(Nc2ccccc2C(F)(F)F)c(C#N)c1=O [Example 59] | < 1000
COc1ccc2nc(C)ccc2c1Nc1sn(C)c(=O)c1C#N [Example 82] | < 1000
Cn1sc(Nc2c(Br)ccc3ncccc23)c(C#N)c1=O [Example 50] | < 1000
COc1ccc(Cn2sc(Nc3ccccc3)c(C#N)c2=O)cc1 [Example 88] | < 1000
CC(C)n1sc(Nc2ccccc2C(F)(F)F)c(C#N)c1=O [Example 107] | < 1000
COc1cccc(C)c1Nc1s[nH]c(=O)c1C#N [Example 109] | 1000 to 5000
C[C@@H](c1ccccc1)n1sc(Nc2ccccc2C(F)(F)F)c(C(=N)N2CCOCC2)c1=O [Example 137] | 1000 to 5000
COCCN(C)C(=O)c1c(Nc2ccccc2C(F)(F)F)sn([C@@H](C)c2ccccc2)c1=O [Example 114] | > 5000
Cn1sc(Nc2ccc(Cl)c3c2CCCO3)c(C#N)c1=O [Example 85] | < 1000
